Where two headings read alike, the source gives them in different places.

One series addresses T1, AR protein (Homo sapiens, UniProt P10275).
T1 construct: VCap is a human prostate cancer cell line purchased from ATCC; host or cells: VCaP human prostate cancer cells
T1 sequence (P10275 1-920): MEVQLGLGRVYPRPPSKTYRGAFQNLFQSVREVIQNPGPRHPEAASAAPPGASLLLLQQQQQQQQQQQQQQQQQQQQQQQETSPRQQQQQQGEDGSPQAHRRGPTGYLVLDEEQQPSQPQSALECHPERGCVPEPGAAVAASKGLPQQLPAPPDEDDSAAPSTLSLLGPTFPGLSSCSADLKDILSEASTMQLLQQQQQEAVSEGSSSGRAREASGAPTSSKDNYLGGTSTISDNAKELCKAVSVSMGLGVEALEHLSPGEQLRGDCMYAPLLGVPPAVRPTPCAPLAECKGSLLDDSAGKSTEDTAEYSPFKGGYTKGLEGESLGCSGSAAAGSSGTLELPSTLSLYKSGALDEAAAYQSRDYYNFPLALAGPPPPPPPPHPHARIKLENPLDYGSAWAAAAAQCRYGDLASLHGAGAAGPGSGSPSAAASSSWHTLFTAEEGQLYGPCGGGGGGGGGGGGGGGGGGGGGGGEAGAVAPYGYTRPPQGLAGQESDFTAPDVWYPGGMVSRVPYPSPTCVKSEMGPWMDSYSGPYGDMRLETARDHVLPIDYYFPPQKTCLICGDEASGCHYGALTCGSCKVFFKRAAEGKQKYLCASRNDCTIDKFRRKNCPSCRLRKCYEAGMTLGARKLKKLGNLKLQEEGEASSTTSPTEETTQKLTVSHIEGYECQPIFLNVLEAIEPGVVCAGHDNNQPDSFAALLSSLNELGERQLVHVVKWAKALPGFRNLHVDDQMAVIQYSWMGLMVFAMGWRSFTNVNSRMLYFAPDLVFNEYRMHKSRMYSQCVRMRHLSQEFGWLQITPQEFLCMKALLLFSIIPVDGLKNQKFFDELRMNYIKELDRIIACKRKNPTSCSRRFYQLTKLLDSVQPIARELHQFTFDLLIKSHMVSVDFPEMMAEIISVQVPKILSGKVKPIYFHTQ
In words: Detection of AR degradation in VCaP cells (automated western blot). Type of series: cell-based. The conditions noted are these: degradation of AR protein in VCaP cells, 24 hours incubation; read-out: DC50. As to the method: VCap is a human prostate cancer cell line purchased from ATCC and cultured under the following conditions: DMEM + 10% FBS + 1% penicillin-streptomycin solution. The cells were cultured in a 37°C, 5% CO2 incubator. The cells were seeded in a 6-well plate, with 5 × 10^5 cells/well. After seeding, compounds at various concentrations were added, and the plate was incubated for 24 hours in the 37°C, 5% CO2 incubator. Following incubation, the cells were harvested and RIPA lysis buffer (beyotime, Cat. P0013B) was added. The cells were lysed on ice for 15 minutes and centrifuged at 12,000 rpm at 4°C for 10 minutes. The supernatant protein samples were collected and the protein was quantified using the BCA kit (Beyotime, Cat. P0009). Then the protein was diluted to 0.25 mg/mL. The expressions of AR (CST, Cat.5153S) and the internal reference β-actin (CST, Cat. 3700S) were detected using a fully automated western blot quantitative analyser (Proteinsimple). Using the "Compass for SW" software, the relative peak area of AR was calculated when the internal reference area was 10,000. The proportion of AR relative to the solvent control group at various drug concentrations was calculated according to Equation (1), where ARtreat represents the relative peak area of the compound-treated group, and ARsolvent represents the relative peak area of the solvent control group. The processed data obtained from Equation (1) were analysed using GraphPad Prism 8.3.0 software, and the DC50 value was calculated using a four-parameter nonlinear regression model. The degradation rate at a specified concentration was determined as 100-AR%. AR% = ARtreat/ ARsolvent × 100% [formula]
On the technique in general: In western blotting, separated proteins are transferred to a membrane and probed.

Another series deals with T2, hERG potassium channel (Homo sapiens, UniProt Q12809).
T2 construct: expressed in transfected cells; host or cells: CHO cells stably expressing hERG
T2 sequence (Q12809 whole entry): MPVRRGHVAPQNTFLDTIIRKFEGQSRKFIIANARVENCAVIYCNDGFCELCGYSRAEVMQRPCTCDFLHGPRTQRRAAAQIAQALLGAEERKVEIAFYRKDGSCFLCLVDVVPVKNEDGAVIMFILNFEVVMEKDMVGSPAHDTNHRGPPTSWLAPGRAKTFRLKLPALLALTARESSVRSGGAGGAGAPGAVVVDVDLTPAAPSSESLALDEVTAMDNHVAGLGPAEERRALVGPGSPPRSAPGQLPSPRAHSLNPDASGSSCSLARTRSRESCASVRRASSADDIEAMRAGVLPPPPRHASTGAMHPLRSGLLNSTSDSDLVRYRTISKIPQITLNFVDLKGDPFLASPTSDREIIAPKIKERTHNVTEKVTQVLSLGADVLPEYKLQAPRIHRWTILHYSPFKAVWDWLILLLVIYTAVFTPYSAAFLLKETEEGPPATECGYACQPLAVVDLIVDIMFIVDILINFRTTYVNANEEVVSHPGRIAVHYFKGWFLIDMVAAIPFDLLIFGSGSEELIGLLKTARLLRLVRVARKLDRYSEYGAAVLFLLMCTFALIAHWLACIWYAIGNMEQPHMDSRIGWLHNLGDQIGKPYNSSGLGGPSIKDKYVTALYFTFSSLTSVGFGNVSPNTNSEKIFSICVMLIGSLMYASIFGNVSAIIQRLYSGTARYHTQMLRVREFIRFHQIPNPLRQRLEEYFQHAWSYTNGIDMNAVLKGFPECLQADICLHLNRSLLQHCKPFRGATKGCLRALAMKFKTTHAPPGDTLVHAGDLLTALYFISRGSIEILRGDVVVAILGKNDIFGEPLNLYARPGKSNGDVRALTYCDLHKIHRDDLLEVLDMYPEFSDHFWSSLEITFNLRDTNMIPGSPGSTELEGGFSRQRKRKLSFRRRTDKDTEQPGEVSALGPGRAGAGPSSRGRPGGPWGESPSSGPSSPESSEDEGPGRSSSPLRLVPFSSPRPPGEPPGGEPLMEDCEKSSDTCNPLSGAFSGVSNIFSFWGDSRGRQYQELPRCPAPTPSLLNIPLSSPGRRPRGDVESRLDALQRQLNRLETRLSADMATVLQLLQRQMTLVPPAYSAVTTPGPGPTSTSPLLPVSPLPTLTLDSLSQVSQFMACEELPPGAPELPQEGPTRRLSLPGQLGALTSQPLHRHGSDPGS
Nature of the series: hERG potassium ion channel test (manual patch-clamp, CHO cells). Type of series: cell-based. The conditions noted are these: inhibitory activity against hERG potassium channel current, CHO cells, whole cell patch-clamp, read-out: IC50. From the text: Experimental platform: Electrophysiological manual patch-clamp system
Cell line: Chinese hamster ovary (CHO) cell lines stably expressing hERG potassium ion channel
Experimental method: In Chinese Hamster Ovary (CHO) cells stably expressing hERG potassium channel, whole cell patch-clamp technique was used to record hERG potassium channel current at room temperature. The glass microelectrode was made of a glass electrode blank (BF150-86-10, Sutter) by a puller. The tip resistance after filling the liquid in the electrode was about 2-5 MΩ. The glass microelectrode can be connected to the patch-clamp amplifier by inserting the glass microelectrode into an amplifier probe. The clamping voltage and data recording were controlled and recorded by the pClamp 10 software through a computer. The sampling frequency was 10 kHz, and the filtering frequency was 2 kHz. After the whole cell records were obtained, the cells were clamped at -80 mV, and the step voltage that induced the hERG potassium current (I hERG) was depolarised from -80 mV to +20 mV for 2 s, then repolarised to -50 mV, and returned to -80 mV after 1 s. This voltage stimulation was given every 10 s, and the administration process was started after the hERG potassium current was confirmed to be stable (at least 1 minute). The compound was administered for at least 1 minute at each test concentration, and at least 2 cells (n ≥ 2) were tested at each concentration.
Data processing: Data analysis processing was carried out by using pClamp 10, GraphPad Prism 5 and Excel software.
Compound IC50 was calculated using GraphPad Prism 5 software by fitting according to the following equation: Y = Bottom + (Top−Bottom)/(1+10^(∧)((LogIC50−X)*HillSlope)) [formula] where X represents the Log value of the tested concentration of the test sample, Y represents the inhibition percentage at the corresponding concentration, and Bottom and Top represent the minimum and maximum inhibition percentage, respectively.
(In general: Block of hERG is tested as a sign of cardiac risk.)

Series [1] in a line: Pharmacokinetic test in mice. The conditions noted are these: mouse, plasma, po, i.g. (5 mg/kg). Type of series: in vivo, ICR mice. As to the method:
Experimental objective: In this experiment, a single dose of the test compound was administered to ICR mice via intravenous administration and intragastric gavage, and the concentration of the test compound in plasma of the mice was measured to evaluate the pharmacokinetic profile of the test compound in the mice.
Experimental animals: Male ICR mice, 6 mice/compound, purchased from Chengdu Ddossy Experimental Animals Co., Ltd.
Experimental method: On the day of the experiment, 6 […] were randomly grouped according to their body weights. The animals were fasted with water available for 12 to 14 h one day before the administration, and were fed 4 h after the administration. Table 6 Administration information of pharmacokinetic test in mice
Sampling: Before and after the administration, 0.15 mL of blood was taken from the orbits under isoflurane anaesthesia, and placed in an EDTAK2 centrifuge tube. Centrifugation was carried out at 5000 rpm at 4°C for 10 min, and the plasma was collected.
The plasma collection time points for PO groups were 0, 5 min, 15 min, 30 min, 1 h, 2 h, 4 h, 7 h, 24 h, and 48 h.
The plasma collection time points for IV groups were 0, 5 min, 15 min, 30 min, 1 h, 2 h, 4 h, 7 h, 24 h, and 48 h.
Before analysis and detection, all samples were stored at -60°C. The samples were analysed quantitatively by LC-MS/MS. Table 7 Pharmacokinetic parameters of compounds of the present invention in plasma of mice

The subject of another series is VCaP cells. In words: VCaP cell proliferation inhibition experiment (CellTiter-Glo). The class given is cell-based. Conditions: Homo sapiens, 168 h. As to the method:
After centrifugation and resuspension, viable cell counting was performed using a Vi-Cell XR cell counter. […] Then, 180 µl of the cell suspension was added per well to a 96-well cell culture plate at a cell density of 7,500 cells/well. At the time of seeding, T0 wells were also prepared. The following day, R1881 at a final concentration of 0.1 nM and compounds at various concentrations were added. The plate was placed back into the incubator and cultured for an additional 7 days. At the time of compound addition, the T0 plate was measured using the CellTiter-Glo (CTG) kit (Promega, Cat. No. G7572) and recorded as RLU0. Following incubation, 75 µl of pre-thawed and room temperature-equilibrated CellTiter-Glo solution was added to each well. […] The results were processed according to Equation (2). […] Growth% = (RLUcompound−RLU0)/(RLUcontrol−RLU0) × 100% [formula]
(In general: ATP-based viability assays read luminescence as a measure of living cells.)

The nature of series [2]: Pharmacokinetic test in rats. The class given is in vivo, SD rats. The conditions noted are these: i.g. (5 mg/kg); for AUC(0-t): rat, po. The method, then:
Experimental objective: In this experiment, a single dose of the test compound was administered to SD rats via intravenous administration and intragastric gavage, and the concentration of the test compound in plasma of the rats was measured to evaluate the pharmacokinetic profile of the test compound in the rats.
Experimental animals: Male SD rats, 200-220 g, 6 rats/compound, purchased from Chengdu Ddossy Experimental Animals Co., Ltd.
Experimental method: On the day of the experiment, 6 SD rats were randomly grouped according to their body weights. The animals were fasted with water available for 12 to 14 h one day before the administration, and were fed 4 h after the administration. Table 3 Administration information of pharmacokinetic test in rats
Sampling: Before and after the administration, 0.1 mL of blood was taken from the orbits under isoflurane anaesthesia, and placed in an EDTAK2 centrifuge tube. Centrifugation was carried out at 5000 rpm at 4°C for 10 min, and the plasma was collected.
The plasma collection time points for IV&PO groups were 0, 5 min, 15 min, 30 min, 1 h, 2 h, 4 h, 7 h, 24 h, and 48 h.
Before analysis and detection, all samples were stored at -60°C. The samples were analysed quantitatively by LC-MS/MS. Table 4 Pharmacokinetic parameters of compounds of the present invention in plasma of rats

The mark [3] stands for this setting: Vehicle 3: 5% DMSO+5% Solutol+90% (20% SBE-β-CD).

As usually defined, the DC50 is the concentration at which degradation of the target reaches its halfway point. One may read the IC50 as the concentration at which inhibition is half-maximal. As a reminder, the AUC(0-t) is exposure summed from dosing to a finite time, without extrapolation to infinity. For the compound `CC1(C)[C@H](NC(=O)c2ccc(N3CCC(CN4CCN5c6cc(F)c(C7CCC(=O)NC7=O)cc6CC[C@@H]5C4)CC3)cc2)C(C)(C)[C@H]1Oc1ccc(C#N)c2ncccc12` (some centres unmarked) [Compound 30], on AR protein, the half-maximal degradation concentration (DC50) is less than 0.1 µM. Further, the IC50 on hERG potassium channel (chinese hamster) was more than 40 µM. In series [1] (setting [3]), the AUC(0-t) was found to be 33000 ± 9330 ng·h/mL.
For orientation: GI50 means the concentration at which growth is held to half of that of the control. In the series on VCaP cells, `COc1cc(O[C@H]2C(C)(C)[C@H](NC(=O)c3ccc(N4CCC(CN5CCN6c7cc(F)c(N8CCC(=O)NC8=O)cc7CC[C@@H]6C5)CC4)nc3)C2(C)C)ccc1C#N` [Trifluoroacetate of compound 66] gave a GI50 of less than 0.3 µM. In series [1] (setting [3]), this compound had an AUC(0-t) of 30400 ± 9310 ng·h/mL.
Consider `COc1cc(O[C@H]2C(C)(C)[C@H](NC(=O)c3ccc(N4CCC(CN5CCN6c7cc(F)c(C8CCC(=O)NC8=O)cc7CC[C@@H]6C5)CC4)cc3)C2(C)C)ccc1C#N` (some centres unmarked) [Compound 2], for which the F in series [2] (vehicle 5% DMSO+ 5% Solutol+30% PEG-400+60% (20% SBE-β-CD)) is 61.4+9.1%. Moreover, the AUC(0-t) in series [2] (in vivo, vehicle 5% DMSO+ 5% Solutol+30% PEG-400+60% (20% SBE-β-CD)) was determined as 6010 ± 889 ng·h/mL.
Turning to `COc1cc(O[C@H]2C(C)(C)[C@H](NC(=O)c3ccc(N4CCC5(CC4)CC(N4CCN6c7cc(F)c(N8CCC(=O)NC8=O)cc7CC[C@@H]6C4)C5)cc3)C2(C)C)ccc1C#N` [Compound 79], the half-maximal degradation concentration (DC50) at AR protein was less than 0.1 µM. The AUC(0-t) in series [2] (male, SD, plasma, vehicle 5% DMSO+5% Solutol+10% PEG400+80% (20% SBE-β-CD)) worked out at 6970 ng·h/mL. For the same compound, the IC50 at hERG potassium channel (human, CHO cells stably expressing hERG potassium channel) is more than 40 µM. In addition, the GI50 with VCaP cells is less than 0.3 µM.
`COc1cc(O[C@H]2C(C)(C)[C@H](NC(=O)c3ccc(N4CCC(CN5CCN6c7cc(F)c(C(=O)NC8CCC(=O)NC8=O)cc7CC[C@H]6C5)CC4)cc3)C2(C)C)ccc1C#N` (some centres unmarked) [Trifluoroacetate of compound 3]: the 50% degradation concentration (DC50) on AR protein is less than 0.1 µM. Moreover, the IC50 at hERG potassium channel (chinese hamster) was more than 40 µM.
For `COc1cc(O[C@H]2C(C)(C)[C@H](NC(=O)c3ccc(N4CCC(CN5CCN6c7cc(F)c(C(=O)N[C@H]8CCC(=O)NC8=O)cc7CC[C@H]6C5)CC4)cc3)C2(C)C)ccc1C#N` [Compound 13], the half-maximal degradation concentration (DC50) at AR protein was less than 0.1 µM. The compound further came in with an AUC(0-t) in series [1] (Vehicle 1: 5% DMSO+5% Solutol+30% PEG400+60% (20% SBE-CD)) of 33500 ± 1680 ng·h/mL.
Take `COc1cc(O[C@H]2C(C)(C)[C@H](NC(=O)c3ccc(N4CCC(CN5CCN6c7cc(F)c(C8CCC(=O)NC8=O)cc7CC[C@H]6C5)CC4)cc3)C2(C)C)ccc1C#N` (some centres unmarked) [Compound 1]: the F in series [2] (vehicle 5% DMSO+5% Solutol+90% (20% SBE-β-CD)) is given as 46.5±8.6%. The compound also yielded an exposure AUC(0-t) in series [2] (in vivo, vehicle 5% DMSO+5% Solutol+90% (20% SBE-β-CD)) of 5490 ± 1010 ng·h/mL. For the same compound, the GI50 in the series with VCaP cells is less than 0.3 µM.
Turning to `CC1(C)[C@H](NC(=O)c2ccc(N3CCC(CN4CCN5c6cc(F)c(N7CCC(=O)NC7=O)cc6CC[C@@H]5C4)CC3)cc2)C(C)(C)[C@H]1Oc1ccc(C#N)c2ncccc12` [Compound 32], the DC50 on AR protein was less than 0.1 µM. The compound further came in with an AUC(0-t) in series [1] (setting [3]) of 30900 ± 6080 ng·h/mL.

Values taken from EP4763845A1, “CYANO AROMATIC RING DERIVATIVE AND PHARMACEUTICAL USE THEREOF” (Haisco Pharmaceutical Group Co., Ltd., priority 2023, dated 2025).
